Source: article PMC10107140, “Preparative‐Scale Biocatalytic Oxygenation of N‐Heterocycles with a Lyophilized Peroxygenase Catalyst” (Angewandte Chemie (International Ed. in English), 2022)

Legend:
Assay type in all cases: biochemical
[1] = biological target: T1, rAaeUPO-PaDa-I-H (unspecific peroxygenase) (Cyclocybe aegerita, UniProt B9W4V6, F354L/I291V/L110F/V100A/V118I); assay: competition-based 5-nitro-1,3-benzodioxole peroxygenase assay
T1 construct: gene APO1; recombinant, expressed in Pichia pastoris, C-terminal histidine tag
T1 sequence (B9W4V6 44-371 V100A/L110F/V118I/I291V/F354L): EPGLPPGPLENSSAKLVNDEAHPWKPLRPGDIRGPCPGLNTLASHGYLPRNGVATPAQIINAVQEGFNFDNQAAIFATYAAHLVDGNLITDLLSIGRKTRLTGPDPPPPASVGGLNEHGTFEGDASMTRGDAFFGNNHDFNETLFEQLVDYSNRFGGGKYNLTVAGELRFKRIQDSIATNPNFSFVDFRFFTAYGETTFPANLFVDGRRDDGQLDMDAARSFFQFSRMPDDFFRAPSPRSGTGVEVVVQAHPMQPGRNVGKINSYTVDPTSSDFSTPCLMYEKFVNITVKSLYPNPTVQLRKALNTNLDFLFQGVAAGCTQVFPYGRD

[2] = biological target: T1, rAaeUPO-PaDa-I-H (unspecific peroxygenase); assay: competition-based 5-nitro-1,3-benzodioxole peroxygenase assay; also converted to (R)-alcohol […]
[3] = biological target: T1, rAaeUPO-PaDa-I-H (unspecific peroxygenase); assay: as above; remark: listed apart in the source

For `CCc1ccncc1` [compound 6, 4-ethylpyridine], which IC50 [1] is on record?
The IC50 was 16 µM.

`CCc1ccccn1` [compound 14, 2-ethylpyridine] was tested. Which IC50 [2] did it give?
Its IC50 is 29500 µM.

With `CCc1cccnc1` [compound 10, 3-ethylpyridine] as the molecule, how does the IC50 [3] read?
The IC50 was 700 µM.
